Assay results reported in US12539289B2, “Phorbol ester compositions and methods of use for treating or reducing the duration of cytopenia” (BIOSUCCESS BIOTECH CO., LTD., priority 2014, dated 2026).
Values joined by “and” are separate entries in the source; they are usually repeats but may differ in a detail not shown here. Identical values can stand only once.

Tests used:
Drug Induced Cytopenia = experiment: Drug induced cytopenia treated by TPA: blood cell counts after DNR + Ara-C; format: in vivo, mice; conditions: for PLT / RBC / WBC: n = 10
Protocol: Ninety (90) adult mice were randomly assigned to 9 groups (10 mice per group). No drug was administered in Control group. Model group was given DNR (6 mg/kg)+Ara-C (150 mg/kg) on Day 0. The rest of the 7 groups were given DNR (6 mg/kg)+Ara-C (150 mg/kg) on Day 0, and each group on Day 7, Day 8, and Day 9 was administered with one of the following drugs: G-CSF (10 μg/kg), EPO (500 IU/kg), TPA (12.5 μg/kg), TPA (25 μg/kg), TPA (50 μg/kg), TPA (12.5 μg/kg)+GCSF (10 μg/kg), or TPA (12.5 μg/kg)+EPO (500 IU/kg).

[1] = tested on: bone marrow stromal cells (BMSCs) from healthy persons; experiment: BMSC proliferation or inhibition, CCK8 method, healthy persons; format: cell-based, human; conditions: BMSCs of the healthy human and the AML patient after chemotherapy
Protocol: (§1) To explore the effect of TPA alone or combined rhG-CSF on bone marrow hematopoietic cells proliferation and colony formation ability which from patients of acute myeloid leukemia (AML) in the period of bone marrow suppression in vitro and to observe the effect of TPA on bone marrow stromal cells(BMSCs) proliferation or inhibition from patients of AML in the period of myelosuppression and the healthy persons.
• 1) Human bone marrow cells from the same AML patient after chemotherapy were cultured by methyl cellulose semi-solid culture medium. Groups: Blank, TPA (10 ng/ml), G-CSF (50 ng/ml), TPA (10 ng/ml)+GCSF (50 ng/ml). The experiments were repeated for 4 times. • 2) The stroma cells of bone marrow from the healthy human and the AML patient after chemotherapy were cultured by methyl cellulose semi-solid culture medium. Different TPA concentrations were added. Groups: Blank, TPA (0.1 ng/ml), TPA (1.0 ng/ml), TPA (5 ng/ml), TPA (10 ng/ml), TPA (20 ng/ml), TPA (30 ng/ml). • 3) Cultivation of BMSCs from healthy persons and patients of AML in the bone marrow suppression phase in vitro, added to TPA of different concentrations, 0.1 ng/ml, 1.0 ng/ml, 5 ng/ml, 10 ng/ml, 20 ng/ml, 30 ng/ml, and set up a control to detect cell proliferation or inhibition with CCK8 method. Results and Conclusion: • 1. […]

[2] = tested on: post-chemotherapy neutropenia; conditions: cited from earlier work
[3] = tested on: Human bone marrow cells from the same AML patient after chemotherapy; experiment: Colony formation of bone marrow hematopoietic cells in methyl cellulose semi-solid culture medium; format: cell-based
Protocol: as §1
• 1) Human bone marrow cells from the same AML patient after chemotherapy were cultured by methyl cellulose semi-solid culture medium. Groups: Blank, TPA (10 ng/ml), G-CSF (50 ng/ml), TPA (10 ng/ml)+GCSF (50 ng/ml). The experiments were repeated for 4 times. • 2) The stroma cells of bone marrow from the healthy human and the AML patient after chemotherapy were cultured by methyl cellulose semi-solid culture medium. Different TPA concentrations were added. Groups: Blank, TPA (0.1 ng/ml), TPA (1.0 ng/ml), TPA (5 ng/ml), TPA (10 ng/ml), TPA (20 ng/ml), TPA (30 ng/ml). • 3) Cultivation of BMSCs from healthy persons and patients of AML in the bone marrow suppression phase in vitro, added to TPA of different concentrations, 0.1 ng/ml, 1.0 ng/ml, 5 ng/ml, 10 ng/ml, 20 ng/ml, 30 ng/ml, and set up a control to detect cell proliferation or inhibition with CCK8 method. Results and Conclusion: • 1. Compared the clones of four groups in incomplete medium, in the control group a small cell clusters can be seen for 24-72 hours, but the cells were dead as time prolong. Cultivated 14 days, control group have no clones formation, CFU-GM are dominated for G-CSF group, TPA alone and combination with G-CSF group have myeloid colony formation, while BFU-E and CFU-GEMM. […] Compared the clones of different concentration of TPA stimulation in incomplete medium, the total clones of 5 ng/ml, 10 ng/ml, 20 ng/ml group are higher than other groups, including 10 ng/ml in the highest, there are statistical significance (both P<0.05). While decreasing or increasing TPA concentration can not improve the colony number. The better concentration of TPA to stimulate the colony formation is 5˜20 ng/ml. […] Compared the clones of different concentration of TPA and G-CSF (50 ng/ml) stimulation in incomplete medium. Combination with G-CSF the better concentration of TPA is 1˜10 ng/ml (both P<0.05). Combination with G-CSF the best concentration of TPA is 5 ng/ml and 1 ng/ml. for CFU-GM and CFU-GEMM. The main clone types are myeloid colones, CFU-GM, also have CFU-GEMM and fewer BFU-E. • 4. […] While TPA group and G-CSF group the number of clones of TPA group and G-CSF group have no statistical significance (P=0.577). • 5. […] Meanwhile, TPA promote bone marroe stromal cells from the AML patients proliferation of concentration 5˜30 ng/ml (cell number 2×10^5/ml). 5 ng/ml of TPA is the best concentration of promoting proliferation, and G-CSF had no effect on the growth of BMSCs from healthy persons or AML patients.

[4] = 8 days after DNR + Ara-c, 1 day after 1st dose, G-CSF 10, EPO 500, TPA 12.5, TPA + GCSF 12.5 + 10, TPA + EPO 12.5 + 500 (μg·kg^−1)
[5] = 8 days after DNR + Ara-c, 1 day after 1st dose, TPA 25 μg·kg^−1
[6] = 8 days after DNR + Ara-c, 1 day after 1st dose, TPA 50 μg·kg^−1
[7] = 9 days after DNR + Ara-c, 1 day after 2nd dose, G-CSF 10, EPO 500, TPA 12.5, TPA + GCSF 12.5 + 10, TPA + EPO 12.5 + 500 (μg·kg^−1)
[8] = 9 days after DNR + Ara-c, 1 day after 2nd dose, TPA 25 μg·kg^−1
[9] = 9 days after DNR + Ara-c, 1 day after 2nd dose, TPA 50 μg·kg^−1
[10] = 10 days after DNR + Ara-c, 1 day after 3rd dose, G-CSF 10, EPO 500, TPA 12.5, TPA + GCSF 12.5 + 10, TPA + EPO 12.5 + 500 (μg·kg^1)
[11] = 10 days after DNR + Ara-c, 1 day after 3rd dose, TPA 25 μg·kg^1
[12] = 10 days after DNR + Ara-c, 1 day after 3rd dose, TPA 50 μg·kg^1

SMILES: CCCCCCCCCCCCCC(=O)O[C@@H]1[C@@H](C)[C@@]2(O)[C@@H](C=C(CO)C[C@]3(O)C(=O)C(C)=C[C@@H]23)[C@@H]2C(C)(C)[C@]12OC(C)=O [TPA, 12-O-tetradecanoylphorbol-13-acetate]
- PLT (Drug Induced Cytopenia; [4]): 395 ± 30.41^(1)(1)(2)(2) ×10^9/L
- RBC (Drug Induced Cytopenia; [4]): 6.08 ± 0.49^(1)(1)(2)(3)(3)(4) ×10^12/L
- WBC (Drug Induced Cytopenia; [4]): 6.4 ± 0.62^(2)(2) ×10^9/L
- PLT (Drug Induced Cytopenia; [5]): 391 ± 20.42^(1)(1)(2)(2) ×10^9/L
- RBC (Drug Induced Cytopenia; [5]): 7.09 ± 0.23^(1)(1)(2)(2)(3)(3)(5) ×10^12/L
- WBC (Drug Induced Cytopenia; [5]): 6.4 ± 0.35^(2)(2) ×10^9/L
- PLT (Drug Induced Cytopenia; [6]): 413 ± 9.64^(1)(1)(2)(2) ×10^9/L
- RBC (Drug Induced Cytopenia; [6]): 7.10 ± 0.24^(1)(1)(2)(2)(3)(3)(5) ×10^12/L
- WBC (Drug Induced Cytopenia; [6]): 6.5 ± 0.75^(2)(2) ×10^9/L
- PLT (Drug Induced Cytopenia; [7]): 965 ± 76.23^(1)(1)(2)(2) ×10^9/L
- RBC (Drug Induced Cytopenia; [7]): 7.47 ± 0.55^(1)(1)(2)(2)(3)(3) ×10^12/L
- WBC (Drug Induced Cytopenia; [7]): 6.84 ± 0.44^(2) ×10^9/L
- PLT (Drug Induced Cytopenia; [8]): 951 ± 70.29^(1)(1)(2)(2) ×10^9/L
- RBC (Drug Induced Cytopenia; [8]): 7.34 ± 0.87^(1)(1)(2)(2)(3)(3) ×10^12/L
- WBC (Drug Induced Cytopenia; [8]): 6.72 ± 0.50^(2) ×10^9/L
- PLT (Drug Induced Cytopenia; [9]): 999 ± 45.67^(1)(1)(2)(2) ×10^9/L
- RBC (Drug Induced Cytopenia; [9]): 7.30 ± 0.49^(1)(1)(2)(2)(3)(3) ×10^12/L
- WBC (Drug Induced Cytopenia; [9]): 6.86 ± 0.39^(2) ×10^9/L
- PLT (Drug Induced Cytopenia; [10]): 1447 ± 78.09^(2)(2) ×10^9/L
- RBC (Drug Induced Cytopenia; [10]): 7.59 ± 0.67^(1)(1)(2)(2)(3)(3) ×10^12/L
- WBC (Drug Induced Cytopenia; [10]): 9.51 ± 0.85^(1)(1)(2)(2)(4)(4) ×10^9/L
- PLT (Drug Induced Cytopenia; [11]): 1465 ± 72.81^(2)(2) ×10^9/L
- RBC (Drug Induced Cytopenia; [11]): 8.26 ± 0.63^(1)(1)(2)(2)(3)(3)(5) ×10^12/L
- WBC (Drug Induced Cytopenia; [11]): 9.69 ± 0.85^(1)(1)(2)(2)(4)(4) ×10^9/L
- RBC (Drug Induced Cytopenia; [12]): 8.18 ± 0.55^(1)(1)(2)(2)(3)(3)(5) ×10^12/L
- WBC (Drug Induced Cytopenia; [12]): 9.90 ± 0.64^(1)(1)(2)(2)(4)(4) ×10^9/L
- PLT (Drug Induced Cytopenia; 10 days after DNR + Ara-c, 1 day after 3rd dose, TPA 50 μg·kg^−1): 1463 ± 80.33^(2)(2) ×10^9/L
- production of WBC, RBC, and platelet (Drug Induced Cytopenia; conclusion of Example 6): promoted the production of WBC, RBC, and platelet
- optimal concentrations for growth of stroma cells of bone marrow (BMSCs) [1]: 5 ng/mL and 10 ng/mL
- duration of post-chemotherapy neutropenia ([2]; acute myelocytic leukemia (AML) patients): capable of shortening the duration of post-chemotherapy neutropenia
- tolerability ([2]; recommended Phase 2 dose 0.125 mg/m^2 daily up to 5 days a week×2 weeks): well tolerated with only minor adverse events
- best concentration for hematopoietic cell clone formation (highest total clones) ([3]; TPA alone, incomplete medium): 10 ng/mL
- colony types whose formation is promoted (CFU-GM, CFU-GEMM, BFU-E) ([3]; bone marrow of AML patients in the period of bone marrow suppression, in vitro): promoted the formation of CFU-GM, CFU-GEMM, and BFU-E
- total number of clones ([3]; incomplete medium, cultivated 14 days, TPA 10 ng/ml, G-CSF 50 ng/ml): higher than G-CSF group
